Assay results reported in patent US20240270821A1, “GIP/GLP1/GCG TRI-RECEPTOR AGONISTS AND USES THEREOF” (priority 2023, published 2024).
Read-outs that look alike come from different tables or passages of the source. Starred links: 1 amine or outer side, 2 acyl side, 3 side chain; linkers in the order of their positions; H or OH if unused. Non-standard residues stand in square brackets, D forms with d. Groups on a side chain read outwards from the residue. *: point of attachment. C18 diacid = O=C(O)CCCCCCCCCCCCCCCCC(=O)*; αMePhe(2-F) = C[C@](N)(Cc1ccccc1F)C(=O)O; γGlu = O=C(O)[C@H](CCC(=O)[*:2])N[*:1]; αMe4Pal = C[C@](N)(Cc1ccncc1)C(=O)O; αMeY = C[C@](N)(Cc1ccc(O)cc1)C(=O)O; 4Pal = N[C@@H](Cc1ccncc1)C(=O)O; αMeL = CC(C)C[C@](C)(N)C(=O)O; αMeS = C[C@](N)(CO)C(=O)O; Orn = NCCC[C@H](N)C(=O)O; Aib = CC(C)(N)C(=O)O

How the values were obtained:
Format in all cases: cell-based
hGIPR [1] = biological target: T1, hGIPR (Homo sapiens, UniProt P48546); assay: Functional cAMP activity in the presence of 1% HSA; conditions: read-out: cAMP Rel EC50, hGIPR
T1 sequence (P48546 22-466): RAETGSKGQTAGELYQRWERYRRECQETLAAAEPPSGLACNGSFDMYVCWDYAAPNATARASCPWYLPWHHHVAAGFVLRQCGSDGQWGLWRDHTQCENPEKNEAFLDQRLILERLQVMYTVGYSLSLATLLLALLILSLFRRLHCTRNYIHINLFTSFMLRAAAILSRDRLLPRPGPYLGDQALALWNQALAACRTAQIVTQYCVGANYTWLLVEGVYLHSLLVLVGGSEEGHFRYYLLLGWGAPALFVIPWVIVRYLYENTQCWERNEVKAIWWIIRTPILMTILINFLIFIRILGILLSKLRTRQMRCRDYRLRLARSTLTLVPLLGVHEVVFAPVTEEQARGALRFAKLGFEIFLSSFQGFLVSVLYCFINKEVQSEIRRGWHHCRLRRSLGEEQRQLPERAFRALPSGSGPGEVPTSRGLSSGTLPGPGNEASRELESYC

hGLP-1R [2] = biological target: T2, hGLP-1R (Homo sapiens, UniProt P43220); assay: Functional cAMP activity in the presence of 1% HSA; conditions: read-out: cAMP Rel EC50, hGLP-1R
human GcgR = human GcgR (Homo sapiens, UniProt P47871); assay: Functional cAMP activity in the presence of 1% HSA
hGIPR [3] = biological target: T1, hGIPR; assay: Functional cAMP activation in the presence of 0.1% casein (no HSA);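 on Relative cAMP EC50, hGIPR: intracellular cAMP rise after 30 min at 37 °C read by HTRF against a standard curve, scaled between buffer alone (0%) and top control ligand concentration (100%), four-parameter fit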;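 on Relative cAMP EC50, hGLP-1R: intracellular cAMP rise after 30 min at 37 °C read by HTRF, normalized between buffer only (0%) and maximal control ligand (100%), four-parameter variable-slope fit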;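 on Relative cAMP EC50, hGcgR: intracellular cAMP rise after 30 min at 37 °C, read by HTRF against a cAMP standard curve, scaled from buffer only (0%) to maximal control ligand response (100%)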
hGLP-1R [4] = biological target: T2, hGLP-1R; assay: as above
hGcgR = hGcgR (Homo sapiens, UniProt P47871); assay: as above;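 further: intracellular cAMP rise after 30 min at 37 °C, read by HTRF against a cAMP standard curve, scaled from buffer only (0%) to maximal control ligand response (100%)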
[5] = read-out: Relative cAMP EC50, hGIPR
[6] = read-out: Relative cAMP EC50, hGLP-1R
[7] = read-out: Relative cAMP EC50, hGcgR
[8] = 0.1% casein, no HSA, geometric mean, read-out: Relative cAMP EC50, hGIPR
[9] = 0.1% casein, no HSA, geometric mean, read-out: Relative cAMP EC50, hGLP-1R
[10] = 0.1% casein, no HSA, geometric mean, read-out: Relative cAMP EC50, hGcgR

T2 sequence (P43220 24-463): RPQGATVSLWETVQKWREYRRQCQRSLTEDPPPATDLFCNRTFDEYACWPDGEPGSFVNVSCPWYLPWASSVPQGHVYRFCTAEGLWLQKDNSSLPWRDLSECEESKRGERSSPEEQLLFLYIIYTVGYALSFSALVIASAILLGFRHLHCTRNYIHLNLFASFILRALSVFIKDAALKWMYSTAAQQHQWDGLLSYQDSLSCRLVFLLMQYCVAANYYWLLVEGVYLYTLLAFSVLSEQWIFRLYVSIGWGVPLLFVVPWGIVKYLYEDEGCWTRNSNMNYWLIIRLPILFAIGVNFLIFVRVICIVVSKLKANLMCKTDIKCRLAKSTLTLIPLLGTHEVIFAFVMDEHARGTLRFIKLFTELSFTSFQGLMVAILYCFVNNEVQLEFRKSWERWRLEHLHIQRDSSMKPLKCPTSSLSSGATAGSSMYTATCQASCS
Sequence of human GcgR (P47871 26-477): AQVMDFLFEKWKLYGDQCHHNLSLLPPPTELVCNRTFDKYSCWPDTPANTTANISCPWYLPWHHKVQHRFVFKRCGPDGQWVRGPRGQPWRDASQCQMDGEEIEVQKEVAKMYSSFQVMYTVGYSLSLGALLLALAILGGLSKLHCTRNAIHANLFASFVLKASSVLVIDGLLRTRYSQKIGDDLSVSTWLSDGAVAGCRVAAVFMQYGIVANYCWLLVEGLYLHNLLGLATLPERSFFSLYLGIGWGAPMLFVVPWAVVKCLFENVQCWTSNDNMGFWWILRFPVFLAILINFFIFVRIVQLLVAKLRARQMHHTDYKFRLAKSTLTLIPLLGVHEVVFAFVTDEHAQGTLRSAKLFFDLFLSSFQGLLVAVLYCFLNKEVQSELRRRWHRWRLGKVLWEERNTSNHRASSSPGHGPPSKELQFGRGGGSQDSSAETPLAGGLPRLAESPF
Sequence of hGcgR (P47871 26-477): as above

With “H-Y[Aib]QGT[αMePhe(2-F)]TSD[4Pal][αMeS]I[αMeL]LD[Orn]K([γGlu-γGlu-C18 diacid])AQ[Aib][Orn]FI[dE][αMeY]LTEGGPSSGEPPPSGTGE-NH2 [Example 543]” the EC50 (hGIPR [1]) was 1.88 nM, the EC50 (hGLP-1R [2]) was 32 nM and the EC50 (human GcgR; read-out: cAMP Rel EC50, hGcgR) was 300 nM. It also gave an EC50 (hGIPR [3]; [5]) of 31.9 pM, an EC50 (hGLP-1R [4]; [6]) of 0.41 nM and an EC50 (hGcgR; [7]) of 4.56 nM.

Work on “H-Y[Aib]QGT[αMePhe(2-F)]TSD[4Pal][αMeS]I[αMeL]LD[Orn]K([γGlu-γGlu-C18 diacid])AQ[αMe4Pal]EFI[dE][αMeY]LIEGGPPS[Aib][Orn]PPP[Orn]GE-NH2 [Example 1227]” yielded an EC50 (hGIPR [1]) of 0.527 nM, an EC50 (hGLP-1R [2]) of 39.5 nM and an EC50 (human GcgR; read-out: cAMP Rel EC50, hGcgR) of 199 nM. The EC50 (hGIPR [3]; [8]) was 6.21 pM, the EC50 (hGLP-1R [4]; [9]) was 0.387 nM and the EC50 (hGcgR; [10]) was 1.99 nM.

Substance “H-Y[Aib]QGT[αMePhe(2-F)]TSD[4Pal][αMeS]I[αMeL]LD[Orn]K([γGlu-γGlu-C18 diacid])AQ[αMe4Pal]EFI[dE][αMeY]LIEGGPPS[Aib][Orn]PPP[Orn]GS-NH2 [Example 1226]” has an EC50 (hGIPR [1]) of 0.443 nM, an EC50 (hGLP-1R [2]) of 34.4 nM and an EC50 (human GcgR; read-out: cAMP Rel EC50, hGcgR) of 184 nM. The EC50 (hGIPR [3]; [8]) was 5.39 pM, the EC50 (hGLP-1R [4]; [9]) was 0.264 nM and the EC50 (hGcgR; [10]) was 1.65 nM.

Substance “H-Y[Aib]QGT[αMePhe(2-F)]TSD[4Pal][αMeS]I[αMeL]LD[Orn]K([γGlu-γGlu-C18 diacid])AQ[αMe4Pal]EFI[dE][αMeY]LIEGGPPS[Aib][Orn]PPP[Orn]SE-NH2 [Example 1228]” has an EC50 (hGIPR [1]) of 0.522 nM, an EC50 (hGLP-1R [2]) of 39.1 nM and an EC50 (human GcgR; read-out: cAMP Rel EC50, hGcgR) of 185 nM. It also gave an EC50 (hGIPR [3]; [8]) of 6.7 pM, an EC50 (hGLP-1R [4]; [9]) of 0.379 nM and an EC50 (hGcgR; [10]) of 1.98 nM.

With “H-Y[Aib]QGT[αMePhe(2-F)]TSD[4Pal][αMeS]I[αMeL]LD[Orn]K([γGlu-γGlu-C18 diacid])AQ[αMe4Pal]EFI[dE][αMeY]LIEGGPSSGAPPPEGGGEE-NH2 [Example 1220]” the EC50 (hGIPR [1]) was 0.609 nM, the EC50 (hGLP-1R [2]) was 48.5 nM and the EC50 (human GcgR; read-out: cAMP Rel EC50, hGcgR) was 168 nM. The EC50 (hGIPR [3]; [8]) was 9.9 pM, the EC50 (hGLP-1R [4]; [9]) was 0.674 nM and the EC50 (hGcgR; [10]) was 1.57 nM.

In the case of “H-Y[Aib]QGT[αMePhe(2-F)]TSD[4Pal][αMeS]I[αMeL]LD[Orn]K([γGlu-γGlu-C18 diacid])AQ[αMe4Pal]EFI[dE][αMeY]LIEGGPSSGAPPPEGTGE-NH2 [Example 764]”, the EC50 (hGIPR [1]) is reported as 0.649 nM, the EC50 (hGLP-1R [2]) is reported as 38.8 nM and the EC50 (human GcgR) is reported as 146 nM. For the same substance, the EC50 (hGIPR [3]) was 6.26 pM, the EC50 (hGLP-1R [4]) was 0.289 nM and the EC50 (hGcgR) was 1.63 nM.

“H-Y[Aib]QGT[αMePhe(2-F)]TSD[4Pal][αMeS]I[αMeL]LD[Orn]K([γGlu-γGlu-C18 diacid])AQ[αMe4Pal]EFI[dE][αMeY]LIEGGPSSGAPPPSGGGEE-NH2 [Example 1218]” showed an EC50 (hGIPR [1]) of 0.626 nM, an EC50 (hGLP-1R [2]) of 48.7 nM and an EC50 (human GcgR; read-out: cAMP Rel EC50, hGcgR) of 185 nM. The EC50 (hGIPR [3]; [8]) was 8.39 pM, the EC50 (hGLP-1R [4]; [9]) was 0.58 nM and the EC50 (hGcgR; [10]) was 1.88 nM.

Work on “H-Y[Aib]QGT[αMePhe(2-F)]TSD[4Pal][αMeS]I[αMeL]LD[Orn]K([γGlu-γGlu-C18 diacid])AQ[αMe4Pal]EFI[dE][αMeY]LIEGGPSSGAPPPSGGGEEE-NH2 [Example 1219]” yielded an EC50 (hGIPR [1]) of 0.629 nM, an EC50 (hGLP-1R [2]) of 46.8 nM and an EC50 (human GcgR; read-out: cAMP Rel EC50, hGcgR) of 168 nM. For the same substance, the EC50 (hGIPR [3]; [8]) was 10.1 pM, the EC50 (hGLP-1R [4]; [9]) was 0.624 nM and the EC50 (hGcgR; [10]) was 1.64 nM.

Work on “H-Y[Aib]QGT[αMePhe(2-F)]TSD[4Pal][αMeS]I[αMeL]LD[Orn]K([γGlu-γGlu-C18 diacid])AQ[αMe4Pal]EFI[dE][αMeY]LIEGGPSSGAPPPSGSE-NH2 [Example 717]” yielded an EC50 (hGIPR [1]) of 0.561 nM, an EC50 (hGLP-1R [2]) of 21.4 nM and an EC50 (human GcgR; read-out: cAMP Rel EC50, hGcgR) of 130 nM. It also gave an EC50 (hGIPR [3]; [5]) of 7.21 pM, an EC50 (hGLP-1R [4]; [6]) of 0.283 nM and an EC50 (hGcgR; [7]) of 1.14 nM.

In the case of “H-Y[Aib]QGT[αMePhe(2-F)]TSD[4Pal][αMeS]I[αMeL]LD[Orn]K([γGlu-γGlu-C18 diacid])AQ[αMe4Pal]EFI[dE][αMeY]LIEGGPSSGEPPPSGE-NH2 [Example 1151]”, the EC50 (hGIPR [1]) is reported as 0.287 nM, the EC50 (hGLP-1R [2]) is reported as 40 nM and the EC50 (human GcgR; read-out: cAMP Rel EC50, hGcgR) is reported as 206 nM. For the same substance, the EC50 (hGIPR [3]; in the presence of 0.1% casein (no HSA), geometric mean, read-out: Relative cAMP EC50, hGIPR) was 3.39 pM, the EC50 (hGLP-1R [4]; in the presence of 0.1% casein (no HSA), geometric mean, read-out: Relative cAMP EC50, hGLP-1R) was 0.262 nM and the EC50 (hGcgR; in the presence of 0.1% casein (no HSA), geometric mean, read-out: Relative cAMP EC50, hGcgR) was 1.31 nM.

For “H-Y[Aib]QGT[αMePhe(2-F)]TSD[4Pal][αMeS]I[αMeL]LD[Orn]K([γGlu-γGlu-C18 diacid])AQ[αMe4Pal]EFI[dE][αMeY]LIEGGPSSGEPPPSGGGE-NH2 [Example 744]”, the EC50 (hGIPR [1]) was 0.488 nM, the EC50 (hGLP-1R [2]) was 22.1 nM and the EC50 (human GcgR; read-out: cAMP Rel EC50, hGcgR) was 111 nM. The EC50 (hGIPR [3]; [5]) was 8.44 pM, the EC50 (hGLP-1R [4]; [6]) was 0.274 nM and the EC50 (hGcgR; [7]) was 1.04 nM.

“H-Y[Aib]QGT[αMePhe(2-F)]TSD[4Pal][αMeS]I[αMeL]LD[Orn]K([γGlu-γGlu-C18 diacid])AQ[αMe4Pal]EFI[dE][αMeY]LIEGGPSSGEPPPSGS-NH2 [Example 715]” was tested, and the EC50 (hGIPR [1]) was 0.51 nM, the EC50 (hGLP-1R [2]) was 19.7 nM and the EC50 (human GcgR; read-out: cAMP Rel EC50, hGcgR) was 126 nM. The EC50 (hGIPR [3]; [5]) was 6.44 pM, the EC50 (hGLP-1R [4]; [6]) was 0.267 nM and the EC50 (hGcgR; [7]) was 1 nM.
